Measurements taken from PubChem BioAssay (NCI).
“And” between values parts separate entries of the source, which are not always exact repeats. Identical values can stand only once.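 Grown in 96-well plates, cells were treated for 48 hours with each compound at five concentrations. Insufficient inhibition: endpoint recorded as highest concentration tested. GI50 marks 50% less growth. TGI is the concentration that stops growth completely.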

Key:
Assay in all cases: growth of human tumour cells (NCI), 48 h
[1] = test system: 786-0 renal
[2] = test system: K-562 leukemia
[3] = test system: PC-3 prostate
[4] = test system: NCI-H23 lung
[5] = test system: M14 melanoma
[6] = test system: MOLT-4 leukemia
[7] = test system: COLO 205 colon
[8] = test system: SK-MEL-2 melanoma
[9] = test system: OVCAR-4 ovarian
[10] = test system: HOP-92 NSCLC

Structure (SMILES)	GI50 [1]	TGI [1]	GI50 [2]	TGI [2]	GI50 [3]	TGI [3]	GI50 [4]	TGI [4]	GI50 [5]	TGI [5]	GI50 [6]	TGI [6]	GI50 [7]	TGI [7]	GI50 [8]	TGI [8]	GI50 [9]	TGI [9]	GI50 [10]	TGI [10]
C=C1C(=O)O[C@H]2[C@H]1CC/C(Cn1cc(Cn3ccc4cc(Cl)ccc43)nn1)=C\CC[C@@]1(C)O[C@@H]21	1.81 µM	3.57 µM	0.649 µM	3.1 µM	1.3 µM	2.87 µM	1.99 µM	4.46 µM	1.65 µM	3.63 µM	0.599 µM	3.16 µM	1.69 µM	3.5 µM	1.61 µM	3.72 µM	1.53 µM	3.02 µM	0.489 µM	1.74 µM
O=c1[nH]cnc2c1nnn2[C@@H]1O[C@H](CO)[C@@H](O)[C@H]1O	3.83 µM	> 100 µM	3.7 µM	> 100 µM	2.77 µM	> 100 µM	6.65 µM	> 100 µM	3.54 µM	41.9 µM	1.96 µM	22.9 µM	3.16 µM	20.6 µM	5.4 µM	70 µM	1.89 µM	> 100 µM	2.33 µM	> 100 µM
CC1=Cc2cc3[n-]c(cc4nc(cc5[n-]c(cc1n2)c(C)c5CCC(=O)O)C(CCC(=O)O)=C4C)cc3C.[Cu+2]	> 1 µM and 21.1 µM	> 1 µM and 54.5 µM	> 1 µM and 13.6 µM	> 60.6 µM	12.9 µM	29.5 µM	> 1 µM and 24.9 µM	> 1 µM and 52.8 µM	> 79.1 µM	> 100 µM	> 1 µM and 46.3 µM	> 88.7 µM	> 1 µM and 40.7 µM	> 100 µM	> 1 µM and 10.9 µM	> 81.7 µM	> 100 µM	> 100 µM	> 1 µM and 13.6 µM	> 1 µM and 34.3 µM
Nc1c(C(=O)Nc2cccc3ccccc23)sc2nc3c(cc12)CCCCC3	0.443 µM	> 50 µM	0.216 µM	> 50 µM	1.07 µM	> 50 µM	1.78 µM	> 50 µM	0.339 µM	> 50 µM	0.418 µM	> 50 µM	1.46 µM	4.99 µM	> 50 µM	> 50 µM	1.79 µM	> 50 µM	0.375 µM	> 50 µM
COc1cc2c3c(n(CCCn4ccnc4)c(=O)c2cc1OC)-c1ccccc1C3=O	< 0.01 µM	0.194 µM	< 0.0155 µM	–	0.169 µM	> 100 µM	< 0.0282 µM	0.0695 µM	< 0.0171 µM	0.116 µM	< 0.01 µM	< 0.0167 µM	0.0979 µM	–	0.927 µM	17.3 µM	0.468 µM	22.4 µM	0.0343 µM	3 µM
O=C(/C=C/C12c3ccccc3C(c3ccccc31)C1C(=O)NC(=O)C12)c1ccco1 (centres undefined)	3.28 µM	10.8 µM	2.19 µM	12.5 µM	1.74 µM	5 µM	2.22 µM	4.83 µM	3.1 µM	11.2 µM	2.16 µM	7.63 µM	3.27 µM	9.32 µM	2.19 µM	4.44 µM	3.45 µM	13.5 µM	1.74 µM	4.54 µM
COc1cc(N)ccc1Nc1c2ccccc2nc2ccccc12	12.7 µM	27.2 µM	3.45 µM	> 28.8 µM	10.6 µM	29.6 µM	15 µM	45.2 µM	16.5 µM	36.2 µM	2.21 µM	> 28.5 µM	5.55 µM	18.4 µM	23.3 µM	44.9 µM	10.6 µM	> 45.6 µM	4.59 µM	23 µM
Cc1c(N(C(=O)c2cc(-c3cc(Cl)ccc3C(=O)N3Cc4ccccc4C[C@H]3CN3CCOCC3)n(C)c2C)c2ccc(O)cc2)cc(C#N)n1C	12.5 µM	36.8 µM	10.8 µM	> 100 µM	11.3 µM	> 100 µM	35.6 µM	> 100 µM	21.8 µM	> 100 µM	2.98 µM	> 100 µM	17.1 µM	35.2 µM	11.8 µM	30.7 µM	11.4 µM	> 100 µM	5.24 µM	22.6 µM
CNC(=O)c1ccc(Nc2nc(OC3CCCC3)c3c(-c4ccc5nc(C)oc5c4)c[nH]c3n2)c(OC)c1	> 43.4 µM	> 100 µM	0.746 µM	> 100 µM	3.57 µM	> 100 µM	4.55 µM	> 100 µM	16.9 µM	> 100 µM	1.63 µM	> 100 µM	0.208 µM	> 100 µM	> 51.3 µM	> 100 µM	5.59 µM	> 100 µM	2.54 µM	> 100 µM
CCC[CH2][Sn]([CH2]CCC)([O]C(=O)c1cccc(F)c1F)[O][Sn]([CH2]CCC)([CH2]CCC)[O]C(=O)c1cccc(F)c1F	0.154 µM	0.344 µM	0.0371 µM	> 100 µM	0.59 µM	1.86 µM	0.0557 µM	0.272 µM	0.274 µM	0.891 µM	0.084 µM	0.821 µM	0.288 µM	0.969 µM	0.166 µM	0.447 µM	0.459 µM	1.28 µM	0.13 µM	0.399 µM
c1cncc(-c2cc(-c3cc(-c4cccnc4)n[nH]3)[nH]n2)c1	–	> 100 µM	–	> 100 µM	–	> 100 µM	–	> 100 µM	–	> 100 µM	–	> 100 µM	–	> 100 µM	–	> 100 µM	–	> 100 µM	–	> 100 µM
N#Cc1c(SCc2ccccc2)nc2[nH]c(=S)[nH]c(=S)c2c1-c1ccco1	42.6 µM	> 100 µM	24.3 µM	> 100 µM	0.448 µM	20.5 µM	28 µM	> 100 µM	> 100 µM	> 100 µM	5.04 µM	> 100 µM	41.2 µM	> 100 µM	> 100 µM	> 100 µM	> 100 µM	> 100 µM	3.45 µM	26.2 µM
CCOC(=O)c1ccc2[nH]c(Cc3[nH]c4ccc(C(=O)OCC)cc4c3C)c(C)c2c1	4.51 µM	31.4 µM	0.832 µM	17.5 µM	1.46 µM	13.7 µM	6.35 µM	25.8 µM	5.98 µM	34.1 µM	1.83 µM	26.8 µM	2.51 µM	21.2 µM	14.1 µM	40.5 µM	7.87 µM	47.7 µM	1.95 µM	8.99 µM
OCC1OC(O)C(N=Cc2ccc3c(c2)OCO3)C(O)C1O (centres undefined)	–	> 100 µM	–	> 100 µM	–	> 100 µM	–	> 100 µM	–	> 100 µM	–	> 100 µM	–	> 100 µM	–	> 100 µM	–	> 100 µM	–	> 100 µM
CCCN1C(=O)/C(=C/c2ccc(O)cc2)SC1=Nc1ccccc1	20.5 µM	36.9 µM	92.1 µM	> 100 µM	28.9 µM	59.8 µM	34.1 µM	93 µM	48.7 µM	> 100 µM	> 100 µM	> 100 µM	22.7 µM	51.3 µM	51 µM	> 100 µM	25.2 µM	49.5 µM	20.3 µM	46.5 µM
C[C@]12CC[C@H]3[C@@H](CC=C4C[C@@H](O)CC[C@@]43C)[C@@H]1C/C(=C\c1cccc(OCCCn3ccnc3)c1)[C@@H]2O	10.5 µM	35 µM	3.38 µM	> 58.4 µM	9.48 µM	56.6 µM	13 µM	30.1 µM	13.4 µM	35.7 µM	6.55 µM	32.2 µM	8.33 µM	27 µM	17.4 µM	33.6 µM	12.8 µM	32.7 µM	8.4 µM	25.7 µM
CCOC(=O)c1ccc(C(O)CC(=O)OC(C)(C)C)[nH]1 (centres undefined)	23.9 µM	83.3 µM	52.6 µM	> 100 µM	21.3 µM	62 µM	44.4 µM	> 100 µM	27 µM	67.3 µM	17.2 µM	> 100 µM	41.3 µM	> 100 µM	21.3 µM	41.3 µM	38.1 µM	> 100 µM	17.9 µM	55.8 µM
Cc1cc(S(=O)(=O)/N=C(\N)n2nc(C)c(C)c2C)c(SCc2ccccc2)cc1Cl	> 100 µM	> 100 µM	4.15 µM	> 100 µM	6.04 µM	> 100 µM	7.04 µM	> 100 µM	> 100 µM	> 100 µM	3.52 µM	> 100 µM	74 µM	> 100 µM	> 100 µM	> 100 µM	19.7 µM	> 100 µM	3.17 µM	> 100 µM
CN(C)c1ccc2[nH]c(O)c(C=Nc3ccc(S(N)(=O)=O)cc3)c2c1	> 25 µM	> 25 µM	> 25 µM	> 25 µM	> 25 µM	> 25 µM	> 25 µM	> 25 µM	> 25 µM	> 25 µM	> 25 µM	> 25 µM	15.6 µM	> 25 µM	> 25 µM	> 25 µM	> 25 µM	> 25 µM	> 25 µM	> 25 µM
Cc1cc2c(cc1C)[n+](=O)c(C(=O)c1cccs1)c(C(F)(F)F)n2[O-]	23 µM and 6.76 µM	50 µM and 24.5 µM	1.43 µM and 2.81 µM	50 µM and 16.3 µM	0.827 µM and 7.09 µM	–	6.25 µM	19.7 µM	14.6 µM and 13.5 µM	50 µM and > 100 µM	4.39 µM	50 µM	5.36 µM and 4.94 µM	41.1 µM and 22.6 µM	15.8 µM and 8.02 µM	50 µM and 26.3 µM	6.44 µM and 3.56 µM	50 µM and 10.7 µM	1.53 µM and 5.5 µM	10.6 µM and 37.9 µM
O=C1OC2(c3ccccc31)c1cc(I)c(O)c(I)c1Oc1c2cc(I)c(O)c1I	–	> 100 µM	–	> 100 µM	–	> 100 µM	–	> 100 µM	–	> 100 µM	–	> 100 µM	–	> 100 µM	–	> 100 µM	–	> 100 µM	–	> 100 µM
CCSc1nc(=S)[nH]c2[nH]ncc12	> 100 µM	> 100 µM	> 100 µM	> 100 µM	> 100 µM	> 100 µM	> 100 µM	> 100 µM	> 100 µM	> 100 µM	> 100 µM	> 100 µM	38.1 µM	> 100 µM	> 100 µM	> 100 µM	> 100 µM	> 100 µM	91.6 µM	> 100 µM
Cc1cc(-c2cc(C)c(O)c(C(C)(C)C)c2)cc(C(C)(C)C)c1O	–	22.6 µM and 25.7 µM	–	25.4 µM and 37.5 µM	6.09 µM and 13.7 µM	19.2 µM and 26.5 µM	–	26.2 µM and 24.7 µM	–	22.4 µM and 25.4 µM	–	19.4 µM and 21.5 µM	–	23.1 µM and 28.9 µM	–	19.4 µM and 25.8 µM	–	27.6 µM and 23.8 µM	15.1 µM and 4.92 µM	29.8 µM and 17.5 µM
O=[N+]([O-])c1ccccc1/C=C/C=C1c2ccccc2-c2ccccc21	> 100 µM	> 100 µM	> 100 µM	> 100 µM	> 100 µM	> 100 µM	> 100 µM	> 100 µM	> 100 µM	> 100 µM	> 100 µM	> 100 µM	> 100 µM	> 100 µM	> 100 µM	> 100 µM	> 100 µM	> 100 µM	> 100 µM	> 100 µM
O=C(CSc1nc2sc3c(c2c(=O)n1-c1ccccc1)CCCCC3)N/N=C/c1ccc(F)cc1	5.49 µM	18.8 µM	5.48 µM	> 100 µM	4.91 µM	26.8 µM	3.29 µM	13.9 µM	5.72 µM	> 100 µM	9.09 µM	> 100 µM	1.58 µM	3.64 µM	14.4 µM	28.8 µM	0.671 µM	2.46 µM	2.47 µM	8.65 µM
